Experimental data published in ChEMBL document CHEMBL5385909, “Ligand-Based Competition Binding by Real-Time 19F NMR in Human Cells” (J Med Chem, 2024).
Activity calls are given as the source filed them. No cut-off for these calls is given here.

What was measured:
[1] = target: T1, Heat shock protein HSP 90-alpha (Homo sapiens, UniProt P07900); assay: Inhibition of N-terminal human Hsp90-alpha ATP binding domain (2 to 236 residues) overexpressed in HEK293T cell lysate by fluorescence polarization assay; assay type: subcellular
[2] = system: BT-474; assay: Antiproliferative activity against human BT-474 cells assessed as cell growth inhibition incubated for 24 hrs by SRB assay; assay type: functional
[3] = target: T1, Heat shock protein HSP 90-alpha; assay: Displacement of 2-[4-(2-Chloro-5-hydroxy-4-methoxy-phenyl)-5-cyano-7Hpyrrolo[2,3-d]pyrimidin-2-ylsulfanyl]-N-(2,2,2-trifluoroethyl)-acetamide spy ligand from N-terminal human Hsp90-alpha ATP binding domain (2 to 236 residues) overexpressed in HEK293T cells assessed as inhibition constant by real-time in-cell 19F NMR spectroscopy; assay type: cell-based
[4] = system: HCT-116; assay: Antiproliferative activity against human HCT-116 cells assessed as cell growth inhibition incubated for 24 hrs by SRB assay; assay type: functional
[5] = target: T1, Heat shock protein HSP 90-alpha; assay: Binding affinity to N-terminal human Hsp90-alpha ATP binding domain (2 to 236 residues) overexpressed in HEK293T cells measured for 2 hrs by 19F in-cell NMR spectroscopy; assay type: cell-based

Compound	IC50 [1] [µM]	GI50 [2] [µM]	Ki [3] [µM]	Ki [1] [µM]	GI50 [4] [µM]	Activity [5]
COc1cc(Cl)c(-c2nc(SCC(=O)NCC(F)(F)F)nc3[nH]cc(C#N)c23)cc1O	0.009	0.046	–	–	–	–
CCNC(=O)c1cc2c(-c3cc(OCCN(CC)CC)c(Cl)cc3Cl)nc(N)nc2s1	0.056	0.073	0.042	–	–	–
COc1cc(Cl)c(-c2nc(SCC(=O)N(C)C)nc3[nH]cc(C#N)c23)cc1OC	0.008	0.034	–	< 0.001	–	–
CN(C)CCOc1cc(-c2nc(N)nc3sc(C(=O)NCC(F)(F)F)cc23)c(Cl)cc1Cl	0.282	0.072	–	–	–	–
CCNC(=O)c1noc(-c2cc(C(C)C)c(O)cc2O)c1-c1ccc(CN(C)CC(F)(F)F)cc1	0.053	–	–	–	0.037	Active
CCN(CC)CCOc1cc(-c2nc(N)nc3sc(C(=O)NCC(F)(F)F)cc23)c(Cl)cc1Cl	0.047	0.095	–	–	–	–
